Measured values taken from patent US12239733B2, “Treatment of protein aggregation myopathic and neurodegenerative diseases by parenteral administration of trehalose” (Seelos Therapeutics, Inc., priority 2013, dated 2025).
“Also recorded” adds a separate entry of the source.

Legend:
[1] = Preclinical pharmacokinetic study: plasma and muscle concentrations of trehalose after intravenous bolus (IV) and oral gavage (PO); format: in vivo, male Sprague-Dawley (SD) rats
Procedure: The plasma and muscle concentrations of trehalose in male Sprague-Dawley (SD) rats was determined after intravenous bolus (IV) and oral gavage (PO) administration.
The study included 42 SD rats (male, 250 to 350 grams in weight, the Shanghai SLAC Laboratory Animal Co. Ltd.). Animals were administered with a volume of 5 ml/kg trehalose formulation (trehalose dihydrate in sterilized water at 200 mg/mL) to achieve a nominal dose of 1 gr/kg, intravenously or orally.
Blood samples were collected after each dose administration and processed for plasma. Muscle samples (hind leg muscle) were collected and homogenized. The concentrations of trehalose in plasma and muscle homogenate samples were analyzed by qualified bioanalytical LC/MS/MS methods.
Plasma concentration data of trehalose was subjected to a non compartmental pharmacokinetic analysis using WinNonlin software program (version 6.3, Pharsight, Mountain View, CA). Zero-time intercept concentration (C0), volume of distribution (Vdss), Clearance (Cl), peak plasma concentrations (Cmax) and the corresponding peak times (Tmax), terminal half-life (T½), mean residence time (MRT) from time zero to the last time point (MRT0-last), MRT from time zero to infinity (MRT0-inf), the area under the plasma concentration-time curve (AUC) from time zero to the last time point (AUC0-last) and AUC from time zero extrapolated to infinity (AUC0-inf) were calculated using the linear/log trapezoidal rule. Nominal sampling times were used to calculate all pharmacokinetic parameters since there was not any deviation larger than 5% between the actual and nominal sampling times.
The values of muscle to plasma concentration and AUC ratio (M/P ratio) were both calculated.

transgenic OPMD mice = conditions: cited from earlier work
healthy volunteers = conditions: cited from earlier work
[2] = oral (ingested); cited from earlier work
transgenic HD mice = conditions: oral, cited from earlier work
[3] = 0.2%-5% trehalose in drinking water, 5-9 weeks

Question: With `OC[C@H]1O[C@H](O[C@H]2O[C@H](CO)[C@@H](O)[C@H](O)[C@H]2O)[C@H](O)[C@@H](O)[C@@H]1O` [trehalose dihydrate] as the molecule, how does the tolerability in rats ([1]; 1000 mg/kg IV or PO, male SD rats) read?
Answer: well tolerated

Question: With `OC[C@H]1O[C@H](O[C@H]2O[C@H](CO)[C@@H](O)[C@H](O)[C@H]2O)[C@H](O)[C@@H](O)[C@@H]1O` [trehalose, α-G-glucopyranosyl α-D-glucopyranoside] as the molecule, how does the AUC0-inf/AUC0-last ([1]; male, Sprague-Dawley, rat, in vivo, iv, 1000 mg/kg) read?
Answer: 100%

Question: What about the AUC0-inf ([1]; rat, in vivo, iv, 1000 mg/kg) of the same molecule?
Answer: 183000 ng·h/g

Question: And the “plasma concentration of trehalose after oral administration” value ([1]; rat, in vivo, po)?
Answer: undetectable

Question: What about the “OPMD onset, phenotype, aggregate formation, cell death” value (transgenic OPMD mice; oral trehalose) of the same molecule?
Answer: delay the OPMD onset, attenuate the disease phenotype, decrease polyalanine protein aggregate formation and decrease cell death

Question: What about the “aggregation formation and toxicity of mutant PABPN1 in myocytes” value (transgenic OPMD mice; oral, 2% trehalose in drinking water, 4-6 months) of the same molecule?
Answer: significantly reduce aggregation formation and toxicity of the mutant PABPN1 in myocytes

Question: And the safety issues reported (healthy volunteers; healthy volunteers, oral doses from 10 to 60 gr)?
Answer: mild abdominal symptoms

Question: What about the “gastrointestinal effects of high oral amounts” value (healthy volunteers; oral, exceeding 40-50 gram per day, higher than 50 g a day in humans) of the same molecule?
Answer: frequently cause diarrhea, bloating and discomfort; also recorded: causes diarrhea and bloating

Question: What about the “share of ingested trehalose absorbed into the blood stream” value [2] of the same molecule?
Answer: Less than 0.5%

Question: And the “motor dysfunction / HD-related motor symptoms” value (transgenic HD mice; [3])?
Answer: improve motor dysfunction; also recorded: improvement of HD-related motor symptoms

Question: And the “polyglutamine / huntingtin aggregates” value (transgenic HD mice; [3])?
Answer: reduce polyglutamine aggregates; also recorded: inhibition of formation of intra-nuclear huntingtin aggregates in the brain and liver

Question: And the survival (transgenic HD mice; HD mouse model)?
Answer: extend survival
